From patent publication US20200222474A1, “COMPOSITIONS AND METHODS FOR INCREASING PHYTOCHEMICAL BIOAVAILABLITY AND BIOACTIVITY” (North Carolina State University, priority 2017, published 2020)

Test system: L. acidophilus NCFM
Test: RNA-seq transcriptional analysis of L. acidophilus NCFM growing on plant glycosides
Type: cell-based, Lactobacillus acidophilus
[1] = LBA0329 Putative cell division protein, COG D
[2] = LBA0466 Hypothetical protein, COG C
[3] = LBA0500 MSM operon repressor, COG K
[4] = LBA0545 Hypothetical protein, COG L
[5] = LBA0547 Putative site-specific recombinase, COG L
[6] = LBA0573 Putative transcriptional regulator, COG K
[7] = LBA0607 Putative transcriptional regulator, COG K
[8] = LBA0672 Putative phosphate starvation inducible protein stress related, COG J
[9] = LBA0753 Multi-drug-type permease, COG GEPR
[10] = LBA0886 Sugar kinase-putative transcriptional regulator, COG KG
[11] = LBA0887 Hypothetical protein, COG C
[12] = LBA0897 Putative Cro-like protein, COG K
[13] = LBA0910 L-lactate dehydrogenase, COG C
[14] = LBA1021 Putative transcriptional regulator, COG K
[15] = LBA1220 Pyridine mercuric reductase, COG C
[16] = LBA1392 Mucus binding protein precursor Mub, COG J
[17] = LBA1411 Fumarate reductase flavoprotein subunit, COG CS
[18] = LBA1436 Glycerol uptake facilitator protein, COG G
[19] = LBA1457 Galactose-1-epimerase, COG G
[20] = LBA1458 Galactose-1-phosphate uridylyltransferase, COG G
[21] = LBA1462 Beta-galactosidase, COG G
[22] = LBA1463 Lactose permease, COG G
[23] = LBA1465 Transcription repressor of beta-galactosidasegene, COG K
[24] = LBA1467 Beta-galactosidase large subunit (lactase), COG G
[25] = LBA1468 Beta-galactosidase small subunit, COG G
[26] = LBA1481 D-ribose-binding protein precursor, COG G
[27] = LBA1482 Ribose ABC transporter, COG G
[28] = LBA1483 Ribose ABC transporter ATP binding protein, COG G
[29] = LBA1484 D-ribose pyranase, COG G
[30] = LBA1494 Lincomycin-resistance protein, COG GEPR
[31] = LBA1607 Phosphatidylserine decarboxylase precursor, COG I
[32] = LBA1632 NAD-dependent aldehyde dehydrogenase, COG C
[33] = LBA1653 Nicotinamide mononucleotide, COG H
[34] = LBA1684 Putative PTS system IIA component, COG G
[35] = LBA1689 Maltose-6′-phosphate Oucosidase, COG G
[36] = LBA1700 Transcriptional regulator-type, COG K
[37] = LBA1701 Melibiose operon regulatory protein, COG K
[38] = LBA1705 PTS system IIBC component, COG G
[39] = LBA1708 Transcriptional antiterminator, COG K
[40] = LBA1710 Thermostable pullulanase, COG G
[41] = LBA1812 Alpha-glucosidase II, COG G
[42] = LBA1870 Maltose phosphorylase, COG G
[43] = LBA1872 Oligo-1,6-glucosidase, COG G

OC[C@H]1O[C@@H](O[C@H]2[C@H](O)[C@@H](O)[C@@H](O)O[C@@H]2CO)[C@H](O)[C@@H](O)[C@H]1O [Lac]
Log2 differential normalized TPM ratio compared to glucose (LBA0016 Fructokinase, COG KG): 1.2
Transcripts per million (rpm) (LBA0016 Fructokinase, COG KG): 211.4 rpm
Log2 differential normalized TPM ratio compared to glucose [1]: 0.4
Transcripts per million (rpm) [1]: 22.1 rpm
Log2 differential normalized TPM ratio compared to glucose [2]: 1.5
Transcripts per million (rpm) [2]: 270 rpm
Log2 differential normalized TPM ratio compared to glucose [3]: 1.6
Transcripts per million (rpm) [3]: 162 rpm
Log2 differential normalized TPM ratio compared to glucose [4]: 2
Transcripts per million (rpm) [4]: 306 rpm
Log2 differential normalized TPM ratio compared to glucose [5]: 1.7
Transcripts per million (rpm) [5]: 37.9 rpm
Log2 differential normalized TPM ratio compared to glucose [6]: 0.1
Transcripts per million (rpm) [6]: 98.5 rpm
Log2 differential normalized TPM ratio compared to glucose [7]: 0.5
Transcripts per million (rpm) [7]: 66.9 rpm
Log2 differential normalized TPM ratio compared to glucose [8]: 0.8
Transcripts per million (rpm) [8]: 2957.4 rpm
Log2 differential normalized TPM ratio compared to glucose [9]: −0.8
Transcripts per million (rpm) [9]: 29.5 rpm
Log2 differential normalized TPM ratio compared to glucose [10]: 0.2
Transcripts per million (rpm) [10]: 7.7 rpm
Log2 differential normalized TPM ratio compared to glucose [11]: 1.2
Transcripts per million (rpm) [11]: 133.7 rpm
Log2 differential normalized TPM ratio compared to glucose [12]: −2.4
Transcripts per million (rpm) [12]: 0.5 rpm
Log2 differential normalized TPM ratio compared to glucose [13]: 1
Transcripts per million (rpm) [13]: 257.2 rpm
Log2 differential normalized TPM ratio compared to glucose [14]: 0.3
Transcripts per million (rpm) [14]: 186.9 rpm
Log2 differential normalized TPM ratio compared to glucose [15]: 1
Transcripts per million (rpm) [15]: 394.7 rpm
Log2 differential normalized TPM ratio compared to glucose [16]: −0.2
Transcripts per million (rpm) [16]: 88.9 rpm
Log2 differential normalized TPM ratio compared to glucose [17]: 1.1
Transcripts per million (rpm) [17]: 4.7 rpm
Log2 differential normalized TPM ratio compared to glucose [18]: 3.8
Transcripts per million (rpm) [18]: 37 rpm
Log2 differential normalized TPM ratio compared to glucose [19]: 5.6
Transcripts per million (rpm) [19]: 732.6 rpm
Log2 differential normalized TPM ratio compared to glucose [20]: 5.7
Transcripts per million (rpm) [20]: 679.9 rpm
Log2 differential normalized TPM ratio compared to glucose (LBA1459 Galactokinase, COG G): 4.6
Transcripts per million (rpm) (LBA1459 Galactokinase, COG G): 610.1 rpm
Log2 differential normalized TPM ratio compared to glucose [21]: 6
Transcripts per million (rpm) [21]: 1123.2 rpm
Log2 differential normalized TPM ratio compared to glucose [22]: 4.7
Transcripts per million (rpm) [22]: 1427.3 rpm
Log2 differential normalized TPM ratio compared to glucose (LBA1464 Transposase, COG L): 2.4
Transcripts per million (rpm) (LBA1464 Transposase, COG L): 956 rpm
Log2 differential normalized TPM ratio compared to glucose [23]: 3.1
Transcripts per million (rpm) [23]: 485.8 rpm
Log2 differential normalized TPM ratio compared to glucose [24]: 8.8
Transcripts per million (rpm) [24]: 2333 rpm
Log2 differential normalized TPM ratio compared to glucose [25]: 6.4
Transcripts per million (rpm) [25]: 1790.7 rpm
Log2 differential normalized TPM ratio compared to glucose [26]: 0.7
Transcripts per million (rpm) [26]: 8.1 rpm
Log2 differential normalized TPM ratio compared to glucose [27]: 1
Transcripts per million (rpm) [27]: 7.9 rpm
Log2 differential normalized TPM ratio compared to glucose [28]: 1
Transcripts per million (rpm) [28]: 6.4 rpm
Log2 differential normalized TPM ratio compared to glucose [29]: 0.6
Transcripts per million (rpm) [29]: 6.1 rpm
Log2 differential normalized TPM ratio compared to glucose (LBA1485 Ribokinase, COG G): 0.7
Transcripts per million (rpm) (LBA1485 Ribokinase, COG G): 5.2 rpm
Log2 differential normalized TPM ratio compared to glucose [30]: 0.1
Transcripts per million (rpm) [30]: 5.7 rpm
Log2 differential normalized TPM ratio compared to glucose [31]: 1
Transcripts per million (rpm) [31]: 41.1 rpm
Log2 differential normalized TPM ratio compared to glucose [32]: 1.8
Transcripts per million (rpm) [32]: 253.3 rpm
Log2 differential normalized TPM ratio compared to glucose [33]: 0.6
Transcripts per million (rpm) [33]: 369.4 rpm
Log2 differential normalized TPM ratio compared to glucose [34]: 1.9
Transcripts per million (rpm) [34]: 48 rpm
Log2 differential normalized TPM ratio compared to glucose [35]: 1.4
Transcripts per million (rpm) [35]: 9.7 rpm
Log2 differential normalized TPM ratio compared to glucose [36]: 0.4
Transcripts per million (rpm) [36]: 28.8 rpm
Log2 differential normalized TPM ratio compared to glucose [37]: 0.8
Transcripts per million (rpm) [37]: 69.9 rpm
Log2 differential normalized TPM ratio compared to glucose [38]: 0.8
Transcripts per million (rpm) [38]: 6.1 rpm
Log2 differential normalized TPM ratio compared to glucose [39]: 1.4
Transcripts per million (rpm) [39]: 1.6 rpm
Log2 differential normalized TPM ratio compared to glucose [40]: 0.4
Transcripts per million (rpm) [40]: 9.9 rpm
Log2 differential normalized TPM ratio compared to glucose (LBA1723 Transposase, COG L): 0.2
Transcripts per million (rpm) (LBA1723 Transposase, COG L): 62 rpm
Log2 differential normalized TPM ratio compared to glucose [41]: 2
Transcripts per million (rpm) [41]: 68.8 rpm
Log2 differential normalized TPM ratio compared to glucose [42]: −1.2
Transcripts per million (rpm) [42]: 46.3 rpm
Log2 differential normalized TPM ratio compared to glucose (LBA1871 Neopullulanase, COG G): 0.7
Transcripts per million (rpm) (LBA1871 Neopullulanase, COG G): 4.5 rpm
Log2 differential normalized TPM ratio compared to glucose [43]: 0.4
Transcripts per million (rpm) [43]: 4 rpm
Log2 differential normalized TPM ratio compared to glucose (LBA1873 Acetate kinase, COG C): 1.4
Transcripts per million (rpm) (LBA1873 Acetate kinase, COG C): 9 rpm
